The record followed here is patent publication US6268380A, “Urea derivatives useful as platelet aggregation inhibitors” (G. D. Searle & Co., priority 1993, dated 2001).

In test [1] the test system is platelet aggregation in Dog PRP. Description: In-Vitro Platelet Aggregation in PRP (ADP induced). It is filed as cell-based. The settings on record: Canis lupus familiaris, ADP 50 um final concentration. As for the experimental part: Healthy male or female dogs were fasted for 8 hours prior to drawing blood; then 30 ml whole blood was collected using a butterfly needle and 30 cc plastic syringe with 3 ml of 0.129 M buffered sodium citrate (3.8%). The syringe was rotated carefully as blood was drawn to mix the citrate. Platelet-rich plasma (PRP) was prepared by centrifugation at 975×g for 3.17 minutes at room temperature allowing the centrifuge to coast to a stop without braking. The PRP was removed from the blood with a plastic pipette and placed in a plastic capped, 50 mL Corning conical sterile centrifuge tube which was held at room temperature. Platelet poor plasma (PPP) was prepared by centrifuging the remaining blood at 2000×g for 15 minutes at room temperature allowing the centrifuge to coast to a stop without braking. The PRP was adjusted with PPP to a count of 2-3×10^8 platelets per mL. 400 uL of the PRP preparation and 50 uL of the compounds solution to be tested or saline were preincubated for 1 minute at 37° C. in a […].). 50 uL of adenosine 5' diphosphate (ADP) (50 um final concentration) was added to the cuvettes and the aggregation was monitored for 1 minute. All compounds are tested in duplicate. Results are calculated as follows: Percent of control=[(maximal OD minus initial OD of compound) divided by (maximal OD minus initial OD of control saline)]×100. The % inhibition=100-(percent of control).
The compounds tested and their median inhibitory concentrations (IC50) are recorded in Table I. IC50 's (dosage at which 50% of platelet aggregation is inhibited) were calculated by linear regression of the dose response curve.

The subject of test [2] is ex vivo collagen induced platelet aggregation. Description: Inhibition of ex vivo collagen induced aggregation (compound administered to dogs). On the set-up: species or system dog (Beagles); key: *: not active at the dose tested. The settings on record: intragastric (IG) administration to dogs; collagen induced aggregation in PRP ex vivo; dose not given. As for the experimental part:
The purpose of this assay is to determine the effects of antiplatelet compounds on ex vivo collagen induced platelet aggregation when administered either intravenously or orally to dogs.
Pretreatment (control) blood samples are drawn from either conscious or anesthetized dogs (Beagles) and centrifuged to prepare platelet rich plasma (PRP). Aggregatory response to collagen is measured in a aggregometer and used as Control. Compounds are administered, either intragasterically (either by capsule or stomach tube or intravenously). Blood samples are drawn at predetermined intervals after compound administration, PRP prepared and aggregation to collagen determined. Compound inhibition of aggregation is determined by comparing the aggregation response after compound administration to the pretreatment response.

For orientation: IC50 means the midpoint of a concentration-inhibition curve. Take `N=C(N)c1ccc(NC(=O)N2CCCC(C(=O)NC(CC(=O)O)c3cccnc3)C2)cc1` (stereo not drawn) [Example 2, β-[[N-3-[[[4-(aminoiminomethyl)phenyl]amino]carbonyl]piperidylcarbonyl]amino]-3-pyridinepropanoic acid]: the half-inhibitory concentration (IC50) in test [1] (1 min, 37° C., aggregation monitored 1 minute) was 850 nM. Also, in test [2], the “Ex Vivo Effect after IG Administration” value is given as “*”.

On to `N=C(N)c1ccc(NC(=O)N2CCCC2C(=O)NC(CC(=O)O)c2cccnc2)cc1` (stereo not drawn) [Example 4, β-[[N-2-[[[4-(aminoiminomethyl)phenyl]amino]carbonyl]pyrrolidylcarbonyl]amino]-3-pyridinepropanoic acid], for which the inhibition at 10 µM in test [1] (at 10^-5 M, read-out: Dog PRP % Inh.) turned out to be 30%.

Turning to `N=C(N)c1ccc(NC(=O)N2CCC(C(=O)NC(CC(=O)O)c3cccnc3)CC2)cc1` (stereo not drawn) [Example 6, β-[[N-[[[4-(aminoiminomethyl)phenyl]amino]carbonyl]4-piperidylcarbonyl]amino]-3-pyridinepropanoic acid], in test [1] (at 10^-6 M, read-out: Dog PRP % Inh.), the inhibition at 1 µM worked out at 19%.
